According to patent US12053479B2, “Transdermal treatment for erectile dysfunction” (Madera Pharmaceuticals, Inc., priority 2020, dated 2024):
Like-named read-outs stand apart in the source and are kept apart here.

What was measured:
[1] = Drug solubility in individual excipients
[2] = In vitro permeation testing (IVPT), diffusion cell; conditions: cumulative amount in receptor solution versus time (FIGS. 2-4)
Source text: With reference to FIG. 1, in vitro skin permeation experiments used a diffusion cell designed to mimic the physiological and anatomical conditions of skin in situ. The diffusion cell included a donor compartment configured to receive the formulation, or solvent system, to be tested. A receptor compartment included a flow path for receptor solution, which was to be analyzed. Dermatomed skin was arranged between the donor compartment and receptor compartment. As such, a formulation comprising the solvent system having the drug is applied to the skin in the donor compartment. A portion of the drug permeated through the skin into the receptor solution, which was analyzed to determine drug concentration at several time periods, including 0.25, 0.5, 1, 1.5 2, 4, 6 and 8 hours. […]
The receptor solution was collected and analyzed as discussed. The cumulative amount per cm^2 of phentolamine, papaverine, and prostaglandin permeated into the receptor solution was calculated from drug concentrations measured in the receptor solution over time. The cumulative amount per cm^2 of phentolamine, papaverine, and prostaglandin at the final timepoint was calculated for each replicate. […] Means and standard errors were calculated and reported in figures and tables, including Tables 5 and 6 below.

[3] = in water, buffer solutions (pH 4 and 7) and glycerol

Structure (SMILES)	Solubility (in words) ([1]; in ethanol and transcutol P)	Solubility (in words) [1, 3]	Amount permeated through the skin, SSAG02 with all of the drugs versus SSAG02 with the drug alone [2]	Saturated solubility (solvent system SSAG01, all three drugs combined) [% w/w]	Saturated solubility (solvent system SSAG01, drug added individually) [% w/w]	Saturated solubility (solvent system SSAG02, all three drugs combined) [% w/w]	Saturated solubility (solvent system SSAG02, drug added individually) [% w/w]	Saturated solubility (upon addition of phentolamine mesylate and prostaglandin E1, span over all solvent systems)	Solubility [1, 3]
CCCCC[C@H](O)/C=C/[C@H]1[C@H](O)CC(=O)[C@@H]1CCCCCCC(=O)O [Prostaglandin E1]	strongly soluble	poorly soluble							
COc1ccc(Cc2nccc3cc(OC)c(OC)cc23)cc1OC.Cl [Papaverine HCl, papaverine hydrochloride]	poorly soluble	moderately soluble	much greater amount	7.58	6.39	9.44	7.21	7.58-9.44 % w/w	2-3 % w/w
